What was measured:
pRB in OVCAR3 cells = assay: pRB ICW Assay in OVCAR3 Cells; format: cell-based; details: Homo sapiens, OVCAR-3, incubated with compound for 2 hours, read-out: OVCAR3 p-RB ICW IC50
Description: pRB ICW Assay in OVCAR3 Cells
OVCAR3 cells were maintained in RPMI (Corning, Catalog #: 10-040-CV) supplemented with 10% v/v FBS (Gibco, Catalog #: 26140-079), 1% v/v Penicillin Streptomycin (Gibco, Catalog #15140-122.) OVCAR3 cells grown at log phase were trypsinized, counted, and resuspended in fresh medium to reach a final density of 6.7e4 cells/mL and 75 μL of culture were dispensed into a 384-well plate (Falcon, cat #353962) using a Multidrop Combi dispenser (Thermo Scientific). The next day, compounds were dispensed as a 9-point, ½ log serial dilution using a Tecan digital dispenser (D300e), and cells were incubated with compound for 2 hours in a humidified incubator at 37° C. A reference compound at a final concentration of 10 μM was used as a control for maximum inhibition. Each compound was tested in duplicates for each experiment. At the end of the incubation, 25 μL of 16% paraformaldehyde (Electron Microscopy, cat #15710) was slowly added to each well and the plate was incubated at room temperature (RT) for 30 minutes to fix cells. Cells were then permeabilized by incubating with 50 μL/well of wash buffer (lx PBS with 0.1% Triton X-100) 5×5 minutes, followed by 1 hour blocking with 30 μL/well of Odyssey blocking buffer (Li—COR, cat #927-40000), at RT. Anti-phosphor RB antibody (Cell signaling 8516S) was diluted 1:1000 in Odyssey blocking buffer and 20 μL was added to all wells and incubated overnight in 4° C. with gently rocking. The next day, cells were washed 5×5 min with 50 μL/well of wash buffer, followed with 1 hour incubation with secondary antibody and DRAQ5 diluted in Odyssey blocking buffer (1:500 dilution for secondary antibody and 1:2000 dilution for DRAQ5), 5×5 min washes, and one last wash with water. Plates were dried in 37° C. oven for 5 minutes and scanned using Li—COR Odyssey CLx imaging system to acquire intensities at 700 and 800 nm channels.

CDK2/Cyclin E2 = CDK2/Cyclin E2 (Homo sapiens, UniProt P24941); assay: CDK2/CyclinE2 Enzymatic Activity Assay (TR-FRET); format: biochemical; details: CDK2/CyclinE2 1 nM, ATP 1 mM, read-out: CDK2_El IC50
Description: CDK2/CyclinE2 Enzymatic Activity Assay
The inhibitory activity of compounds was evaluated in vitro using TR-FRET assay with white 384-well low volume microplate (Greiner Bio-One). CDK2/Cyclin E2 catalyzed phosphorylation of peptide in the presence and absence of compounds was measured and used in IC50 determination. Recombinant protein complex CDK2/Cyclin E2, expressed from insect cell, was purchased from ProQinase. Testing compounds were dissolved in DMSO at 1 mM and tested in 9-dose IC50 mode. The reaction mixture was prepared by mixing CDK2/CyclinE2 (1 nM final), ULight-4E-BP1 (50 nM final, Perkinelmer, TRF0128-D), and ATP (1 mM final) in assay buffer (20 mM of HEPES pH 7.4, 1 mM of EGTA, 0.05% BSA, 0.005% Tween 20, and 1 mM TCEP). The compound of interest in DMSO was added to each well in 3-fold serial dilution by dispenser (TECAN D300E) to make a 9.9 μL of reaction mixture. After 20 minutes preincubation at room temperature, 0.1 μL MgCl2 (10 mM final) was added to initiate the reaction. Following a 45 minute incubation at 37° C., the reaction was stopped by addition of 2 μL of quenching buffer consisting of Lance detection buffer (Perkinelmer CR97-100C), LANCE Ultra Europium-anti-P-4E-BP1 (Perkinelmer, TRF0216-D), EDTA, and incubate at room temperature for additional 60 minutes in the dark. The reaction signal was measured by Envision multimode plate reader (PerkinElmer, 2102-0010). IC50 values were determined by fitting the data to the standard 4 parameters with Hill Slope using GraphPad Prism software.

CDK4/Cyclin D1 = target: T1, CDK4/Cyclin D1 (Homo sapiens, UniProt P11802); assay: CDK4/CyclinD1 Enzymatic Activity Assay (TR-FRET); format: biochemical; details: CDK4/CyclinD1 1 nM, ATP 2 mM, read-out: CDK4_D1 IC50
T1 construct: purchased ProQinase; host or cells: insect cell
Description: CDK4/CyclinD1 Enzymatic Activity Assay
The inhibitory activity of compounds was evaluated in vitro using TR-FRET assay with white 384-well low volume microplate (Greiner Bio-One). CDK4/Cyclin D1 catalyzed phosphorylation of peptide in the presence and absence of compounds was measured and used in IC50 determination. Recombinant protein complex CDK4/Cyclin D1, expressed from insect cell, was purchased from ProQinase. Testing compounds were dissolved in DMSO at 1 mM and tested in 9-dose IC50 mode. The reaction mixture was prepared by mixing CDK4/CyclinD1 (1 nM final), ULight-4E-BP1 (100 nM final, Perkinelmer, TRF0128-D), and ATP (2 mM final) in assay buffer (20 mM of HEPES pH 7.4, 1 mM of EGTA, 0.05% BSA, 0.005% Tween 20, and 1 mM TCEP). The compound of interest in DMSO was added to each well in 3-fold serial dilution by the dispenser (TECAN D300E) to make a 9.9 μL of reaction mixture. After 20 minutes preincubation at room temperature, 0.1 μL MgCl2 (10 mM final) was added to initiate the reaction. Following a 45 minute incubation at 37° C., the reaction was stopped by addition of 2 μL of quenching buffer consisting of Lance detection buffer (Perkinelmer CR97-100C), LANCE Ultra Europium-anti-P-4E-BP1 (Perkinelmer, TRF0216-D), EDTA, and incubated at room temperature for additional 60 minutes in dark. The reaction signal was measured by Envision multimode plate reader (PerkinElmer, 2102-0010). IC50 values were determined by fitting the data to the standard 4 parameters with Hill Slope using GraphPad Prism software.

T1 sequence (P11802 whole entry): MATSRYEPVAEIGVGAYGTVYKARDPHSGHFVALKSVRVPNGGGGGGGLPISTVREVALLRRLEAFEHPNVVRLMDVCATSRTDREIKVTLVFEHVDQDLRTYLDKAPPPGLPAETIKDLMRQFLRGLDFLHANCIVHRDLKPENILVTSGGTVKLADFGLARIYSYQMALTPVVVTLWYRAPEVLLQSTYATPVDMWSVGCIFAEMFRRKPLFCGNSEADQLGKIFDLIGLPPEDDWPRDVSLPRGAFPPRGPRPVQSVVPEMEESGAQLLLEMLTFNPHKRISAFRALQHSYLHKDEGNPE
T1 sequence (P24385 whole entry partner): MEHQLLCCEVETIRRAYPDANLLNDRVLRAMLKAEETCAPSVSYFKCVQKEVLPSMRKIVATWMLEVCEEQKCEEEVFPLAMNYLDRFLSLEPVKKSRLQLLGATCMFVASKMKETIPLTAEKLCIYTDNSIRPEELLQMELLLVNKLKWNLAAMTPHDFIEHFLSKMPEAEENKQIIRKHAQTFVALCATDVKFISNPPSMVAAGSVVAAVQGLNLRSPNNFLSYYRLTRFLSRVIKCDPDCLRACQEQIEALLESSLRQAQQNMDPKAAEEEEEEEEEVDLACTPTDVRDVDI

| IC50 (pRB in OVCAR3 cells) | IC50 (CDK2/Cyclin E2) | IC50 (CDK4/Cyclin D1) | SMILES |
| --- | --- | --- | --- |
| ≤ 100 nM | ≤ 100 nM | ≤ 100 nM | CCC12CCCN1C(=O)c1cc(-c3nc(NC4CCN(S(=O)(=O)c5cnn(C)c5)CC4)ncc3C(F)(F)F)sc12 (stereo not shown) [Example 37, 8a-Ethyl-2-(2-((1-((1-methyl-1H-pyrazol-4-yl)sulfonyl)piperidin-4-yl)amino)-5-(trifluoromethyl)pyrimidin-4-yl)-6,7,8,8a-tetrahydro-4H-thieno[2,3-a]pyrrolizin-4-one] |
| ≤ 100 nM | ≤ 100 nM | ≤ 100 nM | CCC12CC(O)CN1C(=O)c1cc(-c3nc(NC4CCN(S(=O)(=O)c5cnn(C)c5)CC4)ncc3C(F)(F)F)sc12 (stereo not shown) [Example 36, 8a-Ethyl-7-hydroxy-2-(2-((1-((1-methyl-1H-pyrazol-4-yl)sulfonyl)piperidin-4-yl)amino)-5-(trifluoromethyl)pyrimidin-4-yl)-6,7,8,8a-tetrahydro-4H-thieno[2,3-a]pyrrolizin-4-one] |
| ≤ 100 nM | ≤ 100 nM | ≤ 100 nM | CCC12CC(N(C)C)CN1C(=O)c1cc(-c3nc(NC4CCN(S(=O)(=O)c5cnn(C)c5)CC4)ncc3C(F)(F)F)sc12 (stereo not shown) [Example 50, 7-(Dimethylamino)-8a-ethyl-2-(2-((1-((1-methyl-1H-pyrazol-4-yl)sulfonyl)piperidin-4-yl)amino)-5-(trifluoromethyl)pyrimidin-4-yl)-6,7,8,8a-tetrahydro-4H-thieno[2,3-a]pyrrolizin-4-one] |
| ≤ 100 nM | ≤ 100 nM | ≤ 100 nM | CC12CCCN1C(=O)c1cc(-c3nc(NC4CCN(S(C)(=O)=O)CC4)ncc3C(F)(F)F)sc12 (stereo not shown) [Example 20, 8a-Methyl-2-(2-((1-(methylsulfonyl)piperidin-4-yl)amino)-5-(trifluoromethyl)pyrimidin-4-yl)-6,7,8,8a-tetrahydro-4H-thieno[2,3-a]pyrrolizin-4-one] |
| ≤ 100 nM | ≤ 100 nM | ≤ 100 nM | CCC12CC(N(C)C)CN1C(=O)c1cc(-c3nc(NC4CCN(S(C)(=O)=O)CC4)ncc3C(F)(F)F)sc12 (stereo not shown) [Example 39, 7-(Dimethylamino)-8a-ethyl-2-(2-((1-(methylsulfonyl)piperidin-4-yl)amino)-5-(trifluoromethyl)pyrimidin-4-yl)-6,7,8,8a-tetrahydro-4H-thieno[2,3-a]pyrrolizin-4-one] |
|  | ≤ 100 nM | ≤ 100 nM | CS(=O)(=O)N1CCC(Nc2ncc(C(F)(F)F)c(-c3cc4c(s3)C3(CCO)CCCCN3C4=O)n2)CC1 (stereo not shown) [Example 5, 9a-(2-Hydroxyethyl)-2-(2-((1-(methylsulfonyl)piperidin-4-yl)amino)-5-(trifluoromethyl)pyrimidin-4-yl)-7,8,9,9a-tetrahydrothieno[2,3-a]indolizin-4(6H)-one] |

Second part, the molecule before the results:

| SMILES | IC50 (pRB in OVCAR3 cells) | IC50 (CDK2/Cyclin E2) | IC50 (CDK4/Cyclin D1) |
| --- | --- | --- | --- |
| CS(=O)(=O)N1CCC(Nc2ncc(C(F)(F)F)c(-c3cc4c(s3)C3(C5CC(F)C5)CCCN3C4=O)n2)CC1 (stereo not shown) [Example 26, 8a-(3-Fluorocyclobutyl)-2-(2-((1-(methylsulfonyl)piperidin-4-yl)amino)-5-(trifluoromethyl)pyrimidin-4-yl)-6,7,8,8a-tetrahydro-4H-thieno[2,3-a]pyrrolizin-4-one] | 100 to 500 nM | ≤ 100 nM | ≤ 100 nM |
| CS(=O)(=O)N1CCC(Nc2ncc(C(F)(F)F)c(-c3cc4c(s3)C3(CCCO)CCCCN3C4=O)n2)CC1 (stereo not shown) [Example 4, 9a-(3-Hydroxypropyl)-2-(2-((1-(methylsulfonyl)piperidin-4-yl)amino)-5-(trifluoromethyl)pyrimidin-4-yl)-7,8,9,9a-tetrahydrothieno[2,3-a]indolizin-4(6H)-one] |  | ≤ 100 nM | ≤ 100 nM |
| CS(=O)(=O)N1CCC(Nc2ncc(C(F)(F)F)c(-c3cc4c(s3)C3CCCN3C4=O)n2)CC1 (stereo not shown) [Example 21, 2-(2-((1-(Methylsulfonyl)piperidin-4-yl)amino)-5-(trifluoromethyl)pyrimidin-4-yl)-6,7,8,8a-tetrahydro-4H-thieno[2,3-a]pyrrolizin-4-one] | 100 to 500 nM | ≤ 100 nM | ≤ 100 nM |
| CCC12CC(N)CN1C(=O)c1cc(-c3nc(N[C@H]4CCN(S(C)(=O)=O)C[C@H]4C)ncc3C(F)(F)F)sc12 (stereo partly drawn) [Example 45, 7-Amino-8a-ethyl-2-(2-(((3R,4S)-3-methyl-1-(methylsulfonyl)piperidin-4-yl)amino)-5-(trifluoromethyl)pyrimidin-4-yl)-6,7,8,8a-tetrahydro-4H-thieno[2,3-a]pyrrolizin-4-one] | ≤ 100 nM | ≤ 100 nM | ≤ 100 nM |
| CCC12CC(NC)CN1C(=O)c1cc(-c3nc(N[C@H]4CCN(S(C)(=O)=O)C[C@H]4F)ncc3C(F)(F)F)sc12 (stereo partly drawn) [Example 48, 8a-Ethyl-2-(2-(((3R,4S)-3-fluoro-1-(methylsulfonyl)piperidin-4-yl)amino)-5-(trifluoromethyl)pyrimidin-4-yl)-7-(methylamino)-6,7,8,8a-tetrahydro-4H-thieno[2,3-a]pyrrolizin-4-one] | ≤ 100 nM | ≤ 100 nM | ≤ 100 nM |
| CS(=O)(=O)N1CCC(Nc2ncc(C(F)(F)F)c(-c3cc4c(s3)C3(C5CC(O)C5)CCCN3C4=O)n2)CC1 (stereo not shown) [Example 25, 8a-(3-Hydroxycyclobutyl)-2-(2-((1-(methylsulfonyl)piperidin-4-yl)amino)-5-(trifluoromethyl)pyrimidin-4-yl)-6,7,8,8a-tetrahydro-4H-thieno[2,3-a]pyrrolizin-4-one] | ≤ 100 nM | ≤ 100 nM | ≤ 100 nM |
| CC(C)C12CCCCN1C(=O)c1cc(-c3nc(NC4CCN(S(C)(=O)=O)CC4)ncc3F)sc12 (stereo not shown) [Example 9, 2-(5-Fluoro-2-((1-(methylsulfonyl)piperidin-4-yl)amino)pyrimidin-4-yl)-9a-isopropyl-7,8,9,9a-tetrahydrothieno[2,3-a]indolizin-4(6H)-one] |  | ≤ 100 nM |  |
| CCC12CCCN1C(=O)c1cc(-c3ccnc(NC4CCN(S(C)(=O)=O)CC4)n3)sc12 (stereo not shown) [Example 28, 8a-Ethyl-2-(2-((1-(methylsulfonyl)piperidin-4-yl)amino)pyrimidin-4-yl)-6,7,8,8a-tetrahydro-4H-thieno[2,3-a]pyrrolizin-4-one] |  | 100 to 500 nM | 100 to 500 nM |

From US11939340B2, “CDK inhibitors and their use as pharmaceuticals” (Prelude Therapeutics Incorporated, priority 2022, dated 2024)
